Results on 13 compounds are retold here after US20220380341A1, “INHIBITORS OF HIV-1 NEF FOR THE TREATMENT OF HIV DISEASE” (priority 2018, published 2022).

By inhibition is commonly meant the relative decrease from the control value, in per cent.

Read-outs that look alike come from different tables or passages of the source.

The test system of one data set is HIV-1NL4-3. Nature of the data set: HIV-1 infectivity assay in TZM-bl reporter cell line (LTR-luciferase, 48 h). In kind it is cell-based. As to conditions: for inhibition at 1 µM: Human immunodeficiency virus 1, TZM-bl. The gist of the method: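 Percent inhibition of HIV-1NL4-3 infectivity at 1 μM compound, from luciferase output of TZM-bl cells 48 h after infection. Scale anchors are DMSO-treated wild-type infection as zero and DMSO-treated Nef-defective infection as full Nef-dependent effect.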

In a further data set the test system is TZM-bl cell line. It counts as cell-based. In outline:
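Nef-dependent infectivity in TZM-bl cells: HIV-1NL4-3 infection with 1 μM compound, luciferase read at 48 h, normalized against DMSO wild-type and Nef-defective controls. Compound cytotoxicity in uninfected cells measured by Cell Titer Blue.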

The target of another data set is HIV-1 NefNL4-3 (Human immunodeficiency virus type 1 group M subtype B, UniProt P03406, A33V/T15A/T51N/V11I). Nature of the data set: Surface plasmon resonance binding to recombinant full-length Nef (NL4-3). As to conditions: for T, minutes (residence time): 1:1 Langmuir fit, T = 1/koff; for RU30/RUNef (extent of binding): response units at 30 μM relative to Nef immobilized on the SPR chip. A general note: In SPR one partner is held on a chip, and binding of the other changes the refractive index at the surface.

[1] abbreviates: 1.0 μM, TZM-bl reporter cell line, Table 4, read-out: % Infectivity Inhibition.
[2] abbreviates: 48 h, Table 1, TZM-bl cells, 1 μM, 48 h, 100% = Nef-defective HIV-1, read-out: HIV-1 Infectivity % Inhibition Norm. to Δ-Nef @ 1 μM.
The mark [3] stands for this setting: KD, M, Table 4, SPR fit 1:1 Langmuir, KD = koff/kon.
Where [4] appears, read: Table 1, 1:1 Langmuir fit where the KD2 cell says '1 to 1 fitting', else 2-site fit.

Consider `O=S(=O)(c1cccnc1)N1CCCC(c2nn(-c3nc4ccccc4[nH]3)c(O)c2CCc2ccc(F)cc2)C1` (stereo not shown) [Compound I-758, 1-(1H-1,3-benzodiazol-2-yl)-4-[2-(4-fluorophenyl)ethyl]-3-[1-(pyridine-3-sulfonyl)piperidin-3-yl]-1H-pyrazol-5-ol], for which, in the data set with HIV-1NL4-3 (setting [1]), the inhibition at 1 µM turned out to be 54.9%. Besides, the inhibition at 1 µM with HIV-1NL4-3 (setting [2]) is 54.9%. Besides, in the data set on TZM-bl cell line (human, 1 μM), the “% Cell Viability” value is 99.8% and the “Percent Viability @ 1 μM (TZM-bl cells)” value is 99.8%. At HIV-1 NefNL4-3, the Kd was found to be 63.1 nM and the “RU30/RUNef (extent of binding)” value turned out to be 2.95E- 03. Besides, on HIV-1 NefNL4-3 (setting [3]), the Kd was 68.1 nM. The “T, minutes (residence time)” value at HIV-1 NefNL4-3 (Table 4) was 9.21E + 01 minutes.

Regarding `O=C(c1cnccn1)N1CCCC1c1nn(-c2nc3ccccc3[nH]2)c(O)c1CCc1ccc(F)cc1` (stereo not shown) [Compound I-759, 1-(1H-1,3-benzodiazol-2-yl)-4-[2-(4-fluorophenyl)ethyl]-3-[1-(pyrazine-2-carbonyl)pyrrolidin-2-yl]-1H-pyrazol-5-ol], the inhibition at 1 µM in the data set on HIV-1NL4-3 (setting [2]) is -7.6%. In addition, the “Percent Viability @ 1 μM (TZM-bl cells)” value with TZM-bl cell line (human, 1 μM) was determined as 98.2%. The Kd at HIV-1 NefNL4-3 was 221 nM.

`O=C(Cc1ccncc1)N1CCCC1c1nn(-c2nc3ccccc3[nH]2)c(O)c1CCc1ccc(F)cc1` (stereo not shown) [Compound I-760, 1-{2-[1-(1H-1,3-benzodiazol-2-yl)-4-[2-(4-fluorophenyl)ethyl]-5-hydroxy-1H-pyrazol-3-yl]pyrrolidin-1-yl}-2-(pyridin-4-yl)ethan-1-one]: the inhibition at 1 µM in the data set with HIV-1NL4-3 (setting [1]) and in the data set on HIV-1NL4-3 (setting [2]) was 46.5% each time. Further, the “% Cell Viability” value in the data set with TZM-bl cell line (human, 1 μM) came to 96.8%. For the same compound, the “Percent Viability @ 1 μM (TZM-bl cells)” value in the data set on TZM-bl cell line (human, 1 μM) was found to be 96.8%. Besides, the Kd at HIV-1 NefNL4-3 and at HIV-1 NefNL4-3 (setting [3]) was 780 nM throughout. For the same compound, the “T, minutes (residence time)” value at HIV-1 NefNL4-3 (Table 4) came to 7.31E + 00 minutes. Further, the “RU30/RUNef (extent of binding)” value at HIV-1 NefNL4-3 is on record as 1.38E- 03.

On to `CC(C)(O)C(=O)N1CCCC1c1nn(-c2nc3ccccc3[nH]2)c(O)c1CCc1ccc(F)cc1` (stereo not shown) [Compound I-761, 1-{2-[1-(1H-1,3-benzodiazol-2-yl)-4-[2-(4-fluorophenyl)ethyl]-5-hydroxy-1H-pyrazol-3-yl]pyrrolidin-1-yl}-2-hydroxy-2-methylpropan-1-one], for which the inhibition at 1 µM in the data set with HIV-1NL4-3 (setting [2]) was -3.8%. The “Percent Viability @ 1 μM (TZM-bl cells)” value in the data set with TZM-bl cell line (human, 1 μM) turned out to be 101.5%. Further, on HIV-1 NefNL4-3, the Kd stood at 854 nM.

With `O=C(c1c(O)cc(O)cc1O)N1CCCC1c1nn(-c2nc3ccccc3[nH]2)c(O)c1CCc1ccc(F)cc1` (stereo not shown) [Compound I-762, 2-{2-[1-(1H-1,3-benzodiazol-2-yl)-4-[2-(4-fluorophenyl)ethyl]-5-hydroxy-1H-pyrazol-3-yl]pyrrolidine-1-carbonyl}benzene-1,3,5-triol], the inhibition at 1 µM in the data set with HIV-1NL4-3 (setting [1]) and with HIV-1NL4-3 (setting [2]) was 25.7% each time. For the same compound, the “% Cell Viability” value with TZM-bl cell line (human, 1 μM) was 98.6%. Besides, in the data set with TZM-bl cell line (human, 1 μM), the “Percent Viability @ 1 μM (TZM-bl cells)” value was 98.9%. Besides, the Kd at HIV-1 NefNL4-3 turned out to be 277 nM; on HIV-1 NefNL4-3 (KD, M, Table 4, SPR fit 2-step induced fit, KD = koff/kon × koff2/(koff2 + kon2)), 3.98 nM; at HIV-1 NefNL4-3 (Nef NL4-3 Binding, SPR 2-state fitting KD, Table 1, 2-step induced-fit model), 3.98 nM; on HIV-1 NefNL4-3 (read-out: Nef NL4-3 Binding, SPR 1:1 or 2-site fitting KD2, Table 1, 2-site fit, second component) it was 7460 nM.

Turning to `O=C(CN1CCOCC1)N1CCCC1c1nn(-c2nc3ccccc3[nH]2)c(O)c1CCc1ccc(F)cc1` (stereo not shown) [Compound I-763, 1-{2-[1-(1H-1,3-benzodiazol-2-yl)-4-[2-(4-fluorophenyl)ethyl]-5-hydroxy-1H-pyrazol-3-yl]pyrrolidin-1-yl}-2-(morpholin-4-yl)ethan-1-one], the inhibition at 1 µM with HIV-1NL4-3 (setting [2]) turned out to be 11%. The “Percent Viability @ 1 μM (TZM-bl cells)” value with TZM-bl cell line (human, 1 μM) amounted to 97.6%. On HIV-1 NefNL4-3, the Kd stood at 422 nM.

For the compound `O=C(OCc1ccccc1)N1CCC(Cc2nn(-c3nc4ccccc4[nH]3)c(O)c2CCc2ccc(F)cc2)CC1` [Compound I-764, benzyl4-{[1-(1H-1,3-benzodiazol-2-yl)-4-[2-(4-fluorophenyl)ethyl]-5-hydroxy-1H-pyrazol-3-yl]methyl}piperidine-1-carboxylate], the inhibition at 1 µM in the data set on HIV-1NL4-3 (setting [2]) came to 47.4%. Also, the “Percent Viability @ 1 μM (TZM-bl cells)” value with TZM-bl cell line (human, 1 μM) worked out at 100.6%. Moreover, at HIV-1 NefNL4-3 (setting [4]), the “Nef NL4-3 Binding, SPR 1:1 or 2-site fitting KD1” value was “No Interaction”.

In the case of `O=C(C1CCOC1)N1CCC(Cc2nn(-c3nc4ccccc4[nH]3)c(O)c2CCc2ccc(F)cc2)CC1` (stereo not shown) [Compound I-765, 1-(1H-1,3-benzodiazol-2-yl)-4-[2-(4-fluorophenyl)ethyl]-3-{[1-(oxolane-3-carbonyl)piperidin-4-yl]methyl}-1H-pyrazol-5-ol], the inhibition at 1 µM in the data set on HIV-1NL4-3 (setting [2]) turned out to be 13.5%. Moreover, in the data set with TZM-bl cell line (human, 1 μM), the “Percent Viability @ 1 μM (TZM-bl cells)” value came out at 99.3%. In addition, the “Nef NL4-3 Binding, SPR 1:1 or 2-site fitting KD1” value at HIV-1 NefNL4-3 (setting [4]) was “No Interaction”.

`O=C(c1cccc(O)n1)N1CCC(Cc2nn(-c3nc4ccccc4[nH]3)c(O)c2CCc2ccc(F)cc2)CC1` [Compound I-766, 6-(4-{[1-(1H-1,3-benzodiazol-2-yl)-4-[2-(4-fluorophenyl)ethyl]-5-hydroxy-1H-pyrazol-3-yl]methyl}piperidine-1-carbonyl)pyridin-2-ol]: in the data set on HIV-1NL4-3 (setting [2]), the inhibition at 1 µM was determined as 46.9%. Further, the “Percent Viability @ 1 μM (TZM-bl cells)” value in the data set with TZM-bl cell line (human, 1 μM) amounted to 99.5%. The Kd at HIV-1 NefNL4-3 was 481 nM.

Take `O=C(c1cnccn1)N1CCC(Cc2nn(-c3nc4ccccc4[nH]3)c(O)c2CCc2ccc(F)cc2)CC1` [Compound I-767, 1-(1H-1,3-benzodiazol-2-yl)-4-[2-(4-fluorophenyl)ethyl]-3-{[1-(pyrazine-2-carbonyl)piperidin-4-yl]methyl}-1H-pyrazol-5-ol]: in the data set on HIV-1NL4-3 (setting [2]), the inhibition at 1 µM is 18.9%. In addition, the “Percent Viability @ 1 μM (TZM-bl cells)” value in the data set with TZM-bl cell line (human, 1 μM) worked out at 97.6%. For the same compound, the Kd on HIV-1 NefNL4-3 amounted to 425 nM.

Regarding `CN1CCN(CC(=O)N2CCC(Cc3nn(-c4nc5ccccc5[nH]4)c(O)c3CCc3ccc(F)cc3)CC2)CC1` [Compound I-768, 1-(4-{[1-(1H-1,3-benzodiazol-2-yl)-4-[2-(4-fluorophenyl)ethyl]-5-hydroxy-1H-pyrazol-3-yl]methyl}piperidin-1-yl)-2-(4-methylpiperazin-1-yl)ethan-1-one], in the data set with HIV-1NL4-3 (setting [2]), the inhibition at 1 µM was -34.5%. Also, in the data set with TZM-bl cell line (human, 1 μM), the “Percent Viability @ 1 μM (TZM-bl cells)” value is on record as 99.8%. Further, the Kd at HIV-1 NefNL4-3 worked out at 3840 nM.

For the compound `O=C(COCc1ccncc1)N1CCC(Cc2nn(-c3nc4ccccc4[nH]3)c(O)c2CCc2ccc(F)cc2)CC1` [Compound I-769, 1-(4-{[1-(1H-1,3-benzodiazol-2-yl)-4-[2-(4-fluorophenyl)ethyl]-5-hydroxy-1H-pyrazol-3-yl]methyl}piperidin-1-yl)-2-[(pyridin-4-yl)methoxy]ethan-1-one], the “% Infectivity Inhibition” value in the data set with HIV-1NL4-3 (1.0 μM, TZM-bl reporter cell line, Table 4) came to 26.5%. For the same compound, the “HIV-1 Infectivity % Inhibition Norm. to Δ-Nef @ 1 μM” value in the data set with HIV-1NL4-3 (Table 1, TZM-bl cells, 1 μM, 48 h, 100% = Nef-defective HIV-1) came out at 26.5%. Also, in the data set on TZM-bl cell line (1.0 μM, uninfected TZM-bl, CellTiter-Blue, Table 4), the “% Cell Viability” value was found to be 98.8%. Moreover, the “Percent Viability @ 1 μM (TZM-bl cells)” value with TZM-bl cell line (Table 1, uninfected TZM-bl cells, 1 μM, Cell Titer Blue) came to 98.8%. In addition, the Kd at HIV-1 NefNL4-3 (Table 1, 1:1 Langmuir fit where the KD2 cell says '1 to 1 fitting', else 2-site fit, read-out: Nef NL4-3 Binding, SPR 1:1 or 2-site fitting KD1) came out at 798 nM; on HIV-1 NefNL4-3 (Table 4, SPR fit 1:1 Langmuir, KD = koff/kon, read-out: KD), 798 nM. Moreover, on HIV-1 NefNL4-3 (Table 4), the “T, minutes (residence time)” value worked out at 9.47E + 00 minutes. The “RU30/RUNef (extent of binding)” value at HIV-1 NefNL4-3 amounted to 4.88E- 03.

As for `CC(C)(C)OC(=O)N1CCC(Cc2nn(-c3nc4ccccc4[nH]3)c(O)c2CCc2ccc(F)cc2)CC1` [Compound I-770], in the data set with HIV-1NL4-3 (setting [1]), the inhibition at 1 µM was determined as 49.2%. Besides, in the data set on HIV-1NL4-3 (setting [2]), the inhibition at 1 µM turned out to be 49.2%. In the data set with TZM-bl cell line (human, 1 μM), the “% Cell Viability” value was determined as 99.7% and the “Percent Viability @ 1 μM (TZM-bl cells)” value was found to be 99.7%. Besides, at HIV-1 NefNL4-3, the Kd worked out at 1.05 nM and the “RU30/RUNef (extent of binding)” value came out at 3.04E- 03. In addition, at HIV-1 NefNL4-3 (setting [3]), the Kd stood at 1.05 nM. On HIV-1 NefNL4-3 (Table 4), the “T, minutes (residence time)” value is recorded as 1.65E + 04 minutes.
